Data taken from BindingDB's records for doi:10.1016/j.bmcl.2007.01.064 (Vertex Pharmaceuticals, 2007).

Target: T1, Disintegrin and metalloproteinase domain-containing protein 17 [215-477,S266A,N452Q] (Homo sapiens, UniProt P78536, N452Q/S266A)
T1 construct: 215-477
Assay: TACE Inhibition Assay
Details: pH 7.5; 22 °C
Method: The compounds were tested for TACE inhibition using fluorescence resonance energy transfer (FRET) assay. TACE catalyzed cleavage of the substrate peptide liberates the fluoropore from the proximity of the adjacent quenching moiety, and an increase in fluorescence signal results.

T1 sequence (P78536 215-477 S266A/N452Q): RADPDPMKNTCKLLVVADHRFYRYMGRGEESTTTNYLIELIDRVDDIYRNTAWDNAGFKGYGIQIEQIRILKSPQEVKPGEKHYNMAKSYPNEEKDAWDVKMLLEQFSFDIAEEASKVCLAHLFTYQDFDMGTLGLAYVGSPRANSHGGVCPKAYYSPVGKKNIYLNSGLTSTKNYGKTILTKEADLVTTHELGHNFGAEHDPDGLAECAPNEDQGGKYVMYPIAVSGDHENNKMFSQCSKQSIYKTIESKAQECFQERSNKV

Ki: 56 nM
Compound: CC#CCOc1ccc(S(=O)(=O)N(C)CCS)cc1 [4-(but-2-yn-1-yloxy)-N-methyl-N-(2-sulfanylethyl)benzene-1-sulfonamide]
